From US20130178479A1, “PHARMACEUTICAL COMBINATIONS” (NOVARTIS AG, priority 2010, published 2013)
pIC50: −log10 of the molar value. Read-outs that look alike come from different tables or passages of the source.

Columns and labels:
[1] = tested on: p4EBP1 T37/46 in NCI-H23 cells; experiment: High content p4EBP1 T37/46 assay in NCI-H23 cells; assay type: cell-based, human
Experimental: (§1) Automated imaging assay (or High-Content assay) for pS6 S240/244 and p4EBP1 T37/46: 2-4×10^3 cells were seeded in clear-bottom 384-well black plates (Greiner #781091) in 30 μl per well growth media 24 hours prior to treatment Compounds were added to the cell in 10 μl growth media and incubated overnight; the cells were then fixed by addition of 10 μl per well Mirsky's fixative (National Diagnostics #HS-102) for 1 hour, washed seven times with 30 μl/well TBS buffer using a BioTek plate washer, and blocked with 100 μl/well blocking buffer (TBS with 0.1% BSA and 0.1% Triton X-100). The anti-Ser 240/244 -RPS6 antibody (CST #4838, 1:150 dilution) or anti-Thr 37/46-p4EBP1 antibody (CST #2855, 1:150 dilution) were then incubated overnight at 4° C. After seven times wash with TBS, the cells were stained with Cy5-conjugated goat-anti-rabbit IgG 2nd antibody (Millipore #AP187S, 1:150 dilution) and DNA staining dye Neediest 33342 for 1.5 hours. The phospho-S6 and phospho-4EBP1 signals were-imaged using InCell 1000 Analyzer (BN_staining—10×protocol) at 10× magnification, 3 fields per well after seven times wash with TBS. For Hoechst 33342 signal; the excitation and emission wave lengths are 360 nm (D360—40× filter) and […] (HQ460—40M filter), respectively, and for Cy5, 620 nm (HQ620—60× filter) for both the excitation and emission wave lengths. Analysis of the images was done using the InCell Investigator software.
(§2) Method for calculating the effect of the Combination: To evaluate the everolimus and Compound A combination effect in a non-bias way and to identify synergistic effect at all possible concentrations, the combination studies were conducted with a “dose matrix”, where a combination is tested in all possible permutations of serially-diluted everolimus and Compound A single agent doses, in all combination assays, compounds were applied simultaneously. Single agent dose responding curves, IC50, IC90, and the Synergy are all analyzed using Chalice software (CombinatoRx, Cambridge, Mass.). Synergy was calculated by comparing a combination's response to those of its single agents, against the drug-with-itself dose-additive reference model. Deviations from dose additivity can be assessed visually on an Isobologram or numerically With a Combination Index. Excess inhibition compare to additivity can also be plotted as a full dose-matrix chart to capture where the synergies occur. To quantify the overall strength of combination effects, a volume score VHSA=ΣXYInfXInfY(Idata−IHSA) is also calculated between the data and the highest-single-agent surface, normalized for single agent dilution factors fX,fY[ref].
The cells were plated at 3000 cells per well in 384 well plates in quadruplicates, and treated with compound for 18 hrs before the measurement (FIGS. 1-2).

[2] = tested on: MDA-MB-361 Human Breast Cancer cells; experiment: Cell proliferation assay (CellTiter-Glo) in MDA-MB-361; assay type: cell-based; settings: for pIC50: Homo sapiens
Experimental: (§3) Celt Proliferation Assay: Cell viability was determined by measuring cellular ATP content using the CellTiter-Glo® Luminescent Cell Viability Assay (Promega #G7573) according to manufacturer's protocol. Briefly, 1500-50000 cells were plated on either 384 or 96 well plates in 30 μl (384 well) or 100 μl (96 well) growth media, cells were: allowed to attach overnight and followed by 72 hrs of incubation with various concentration of drugs or drug combinations (10 μl per well in 384 well plates), at the end of the drug treatment, 30 μl of the CellTiter-Glo regent were added to each well (384 well plates) to lyse the cell, and luminescence signals were recorded on a Envision plate reader.
The cells were plated at 2000 cells/well in […] in triplicates, and treated with compound for 72 hrs prior to the measurement. The following “dose matrix”, everolimus: 8 dose, 2×, 2000 nM to 15 nM, Compound A: 8 dose, 2×, 2 μM to 15 nM, was applied.

[3] = tested on: p4EBP1 T37/46 in MFE296 cells; experiment: High content p4EBP1 T37/46 assay in MFE296 cells; assay type: cell-based, human; settings: for pIC50 / IC90: Homo sapiens, MFE-296
Experimental: as §1, §2
p4EBP1 signal. […] The cells were plated at 4000 cells/well in 384 well plates in duplicates, and treated with compound for 18 hrs before the measurement (FIG. 7).

[4] = tested on: MFE296 human endometrial cancer cells; experiment: Cell proliferation assay (CellTiter-Glo) in MFE296; assay type: cell-based; settings: for Amax: single agent
Experimental: as §3, §2
The experiment setup is identical to the p4EBP1 assay as described above for the MFE296 cancer cell model. (FIG. 8). And the same “dose matrix” (everolimus: 11 dose, 4', 500 nM to 0.5 pM, Compound A; 9 dose, 4×, 1 μM to 16 nM) was applied.

[5] = tested on: SK-BR3 Human Breast Cancer cells; experiment: Cell proliferation assay (CellTiter-Glo) in SK-BR3; assay type: cell-based; settings: for pIC50: Homo sapiens, SK-BR-3
Experimental: as §3
The cells were plated at 2000 cells/well in 96 well plates in triplicates, and treated with compound for 72 hrs prior to the measurement. The following dose matrix, everolimus: 8 dose, 2×, […] to 15 nM, Compound A: 8 dose, 2×, 2 μM to 15 nM, was applied.

[6] = tested on: KMS-11 human Multiple Myeloma cancer cells; experiment: Cell proliferation assay (CellTiter-Glo) in KMS-11; assay type: cell-based; settings: for pIC50: Homo sapiens
Experimental: as §3, §2
The cells were plated, at 50000 cells/well in 96 well plates in triplicates, and treated with compound for 72 hrs prior to the measurement (FIG. 11). The following “dose matrix”, everolimus; 8 dose, 3×, 500 nM to 0.23 nM, Compound A: 8 dose, 2×, 1 μM to 8 nM, was applied.

[7] = tested on: pS6 S240/244 in NCI-H23 cells; experiment: High content pS6 S240/244 assay in NCI-H23 cells; assay type: cell-based; settings: Homo sapiens, single agent, NCI-H23, 18 hrs; for pIC50: read-out: IC50, inhibition of pS6 signal; for IC90: read-out: IC90, inhibition of pS6 signal
Experimental: as §1, §2
The experiment setup is identical to the p4EBP1 assay used for the NCI-H23 cell model (FIGS. 3-4). […]

[8] = single agent, MDA-MB-361, 72 hrs
[9] = single agent, SK-BR3, 72 hrs, read-out: IC50, inhibition of cell growth

For `Cn1c(=O)n(-c2ccc(C(C)(C)C#N)cc2)c2c3cc(-c4cnc5ccccc5c4)ccc3ncc21` [Compound A, 2-methyl-2-[4-(3-methyl-2-oxo-8-quinolin-3-yl-2,3-dihydro-imidazo[4,5-c]quinolin-1-yl)-phenyl]-propionitrile], the IC90 ([1]; Homo sapiens, in combination with 5 nM everolimus, NCI-H23, read-out: IC90 for Compound A, p4EBP1 signal) was 5 nM, the pIC50 ([1]; Homo sapiens, single agent, NCI-H23, 18 hrs, read-out: IC50, reduction of p4EBP1 signal) was 8.00 and the IC90 ([1]; Homo sapiens, single agent, NCI-H23, 18 hrs, read-out: IC90, reduction of p4EBP1 signal) was 80 nM. The “concentration at which p4EBP1 signal reduction plateaued (complete inhibition)” value ([1]; single agent, NCI-H23) was ≥ 167 nM, the “reduction of IC90 for Compound A, p4EBP1 signal” value ([1]; with 5 nM everolimus vs Compound A alone) was 16 fold and the “full effective dose range of Compound A” value ([2]; Compound A alone, MDA-MB-361) was 120 nM. For the same molecule, the pIC50 ([2]; concomitant everolimus, MDA-MB-361, read-out: IC50 for Compound A, cell growth) was > 7.82, the pIC50 ([2]; single agent, MDA-MB-361, 72 hrs, read-out: IC50, inhibition of cell growth) was ~7.22 and the Amax [2, 8] was 0.81. For the same molecule, the “full effective dose range of Compound A” value ([2]; with low dose everolimus, MDA-MB-361) was < 15 nM, the pIC50 ([3]; in presence of trace amount of everolimus, MFE296, read-out: IC50 for Compound A, p4EBP1 signal) was 9.62 and the IC90 ([3]; in presence of trace amount of everolimus, MFE296, read-out: IC90 for Compound A, p4EBP1 signal) was 4 nM. The pIC50 ([3]; single agent, MFE296, 18 hrs, read-out: IC50, reduction of p4EBP1 signal) was 7.80, the IC90 ([3]; single agent, MFE296, 18 hrs, read-out: IC90, reduction of p4EBP1 signal) was ~100 nM and the “full effective dose of Compound A” value ([4]; Compound A alone) was 250 nM. For the same molecule, the pIC50 ([4]; Homo sapiens, MFE-296, single agent, read-out: IC50, inhibition of cell growth) was 7.11, the Amax [4] was 0.79 and the “full effective dose of Compound A” value ([4]; with trace amount (picomolar) of everolimus) was “close to sub-nanomolar range”. The “full effective dose range of Compound A” value ([5]; Compound A alone, SK-BR3) was 120 nM, the pIC50 ([5]; concomitant everolimus, SK-BR3, read-out: IC50 for Compound A, cell growth) was > 7.82 and the pIC50 [5, 9] was ~7.51. For the same molecule, the Amax ([5]; single agent, SK-BR3, 72 hrs) was 0.67, the “full effective dose range of Compound A” value ([5]; with low dose everolimus, SK-BR3) was < 15 nM and the “full effective dose amount of Compound A” value ([6]; Compound A alone, KMS-11) was > 125 nM. The pIC50 ([6]; concomitant everolimus, KMS-11, read-out: IC50 for Compound A, cell growth) was 7.80, the pIC50 ([6]; single agent, KMS-11, 72 hrs, read-out: IC50, inhibition of cell growth) was ~7.10 and the Amax ([6]; single agent, KMS-11, 72 hrs) was 0.7. The “full effective dose amount of Compound A” value ([6]; with trace amount (sub-nanomolar) of everolimus, KMS-11) was 16 to 82 nM, the pIC50 [7] was 8.30 and the IC90 [7] was ~20 nM.

In the case of `CO[C@H]1C[C@@H]2CC[C@@H](C)[C@@](O)(O2)C(=O)C(=O)N2CCCC[C@H]2C(=O)O[C@H]([C@H](C)C[C@@H]2CC[C@@H](OCCO)[C@H](OC)C2)CC(=O)[C@H](C)/C=C(\C)[C@@H](O)[C@@H](OC)C(=O)[C@H](C)C[C@H](C)/C=C/C=C/C=C/1C` [everolimus, 40-O-(2-hydroxyethyl)-rapamycin, reference compound], the p4EBP1 signal reduction ([1]; single agent, all concentrations tested 5 nM-1.2 μM, NCI-H23) was “approximately 30%”, the Amax [2, 8] was < 0.50 and the p4EBP1 signal reduction ([3]; single agent, all concentrations tested 0.5 pM-500 nM, MFE296) was “approximately 20%”. For the same molecule, the Amax [4] was 0.6, the pIC50 [5, 9] was > 7.82 and the Amax ([5]; single agent, SK-BR3, 72 hrs) was 0.50. For the same molecule, the Amax ([6]; single agent, KMS-11, 72 hrs) was 0.28, the pIC50 [7] was > 8.30 and the IC90 [7] was ~10 nM.
